Results taken from PubChem BioAssay AID330 (DTP/NCI, 2004).
Values joined by “and” are separate entries in the source; they are usually repeats but may differ in a detail not shown here. Equal values may be shown once. Inconclusive results and toxic doses are left out. How the source made its calls: active means survival T/C of 150% or more; inactive means T/C below 125% in these data.

Test system: P388 leukemia ip, CD2F1 mice, survival T/C
Assay: NCI In Vivo Anticancer Drug Screen. Data for tumor model P388 Leukemia (intraperitoneal) in CD2F1 (CDF1) mice
Settings: endpoint: median survival time, higher = longer survival
In short: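 Mice carrying the transplanted tumor received test compound or vehicle. Survival was recorded in each group, and the value is the treated-group measurement divided by that of the vehicle-treated control group.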

[1] = dose: 50.0 mg/kg/injection, schedule: Q01DX005 (ip), vehicle: Klucel (hydroxypropylcellulose) (HPC)
[2] = dose: 100.0 mg/kg/injection, schedule: Q01DX005 (ip), vehicle: Klucel (hydroxypropylcellulose) (HPC)
[3] = dose: 200.0 mg/kg/injection, schedule: Q01DX005 (ip), vehicle: Klucel (hydroxypropylcellulose) (HPC)
[4] = dose: 100.0 mg/kg/injection, schedule: Q04DX002 (ip), vehicle: saline with Tween-80
[5] = dose: 200.0 mg/kg/injection, schedule: Q04DX002 (ip), vehicle: saline with Tween-80
[6] = dose: 50.0 mg/kg/injection, schedule: Q01DX005 (ip), vehicle: saline with Tween-80
[7] = dose: 100.0 mg/kg/injection, schedule: Q01DX005 (ip), vehicle: saline with Tween-80
[8] = dose: 60.0 mg/kg/injection, schedule: Q01DX005 (ip), vehicle: saline with Tween-80
[9] = dose: 120.0 mg/kg/injection, schedule: Q01DX005 (ip), vehicle: saline with Tween-80
[10] = dose: 240.0 mg/kg/injection, schedule: Q01DX005 (ip), vehicle: saline with Tween-80
[11] = dose: 50.0 mg/kg/injection, schedule: Q01DX009 (ip), vehicle: saline with Tween-80
[12] = dose: 200.0 mg/kg/injection, schedule: Q01DX005 (ip), vehicle: saline with Tween-80
[13] = dose: 100.0 mg/kg/injection, schedule: Q01DX009 (ip), vehicle: saline with Tween-80
[14] = dose: 50.0 mg/kg/injection, schedule: Q01DX009 (ip), vehicle: Klucel (hydroxypropylcellulose) (HPC)
[15] = dose: 100.0 mg/kg/injection, schedule: Q01DX009 (ip), vehicle: Klucel (hydroxypropylcellulose) (HPC)
[16] = dose: 200.0 mg/kg/injection, schedule: Q01DX009 (ip), vehicle: Klucel (hydroxypropylcellulose) (HPC)

Measured: T/C

CCCCNc1ccc2nnc(C)n2n1
inactive: [1] 103 % of control | dose: 100.0 mg/kg/injection, schedule: Q01DX005 (ip), vehicle: DMSO 98 % of control | [2] 108 % of control | dose: 200.0 mg/kg/injection, schedule: Q01DX005 (ip), vehicle: DMSO 104 % of control | [3] 100 % of control

c1ccc(N2CCCN2c2ccccc2)cc1
inactive: [4] 101 % of control | [5] 99 % of control | dose: 400.0 mg/kg/injection, schedule: Q04DX002 (ip), vehicle: saline with Tween-80 98 % of control

O/N=C/c1cccc(O)c1O
inactive: [6] 96 % of control | [7] 107 % of control

COc1ccnc(-c2cc(OC)cc(/C(N)=N/O)n2)c1
inactive: [8] 100 % of control | [9] 105 % of control | [10] 100 % of control

CCCCCCCCCCCCCCCC[N+](C)(C)CCNC(C)=O
inactive: dose: 12.5 mg/kg/injection, schedule: Q01DX009 (ip), vehicle: saline with Tween-80 100 % of control | dose: 25.0 mg/kg/injection, schedule: Q01DX009 (ip), vehicle: saline with Tween-80 102 % of control | [11] 90 % of control

N#CC(C(=O)C(=O)Nc1cccc(C(F)(F)F)c1)c1c(Cl)cccc1Cl (stereo not drawn)
inactive: [6] 98 % of control | [7] 100 % of control | [12] 100 % of control

O=C(NC(Cc1cnc[nH]1)C(=O)O)c1ccccc1 (stereo not drawn)
inactive: [11] 92 % of control | [13] 98 % of control | dose: 200.0 mg/kg/injection, schedule: Q01DX009 (ip), vehicle: saline with Tween-80 98 % of control

C=CCc1ccccc1NC(C)C(=O)OCC (stereo not drawn)
inactive: [6] 107 % of control | [7] 107 % of control | [12] 107 % of control

Ic1ccccc1C[N+]12CN3CN(CN(C3)C1)C2
inactive: dose: 100.0 mg/kg/injection, schedule: Q04DX003 (ip), vehicle: saline with Tween-80 120 % of control | dose: 200.0 mg/kg/injection, schedule: Q04DX003 (ip), vehicle: saline with Tween-80 115 % of control

Cc1c2oc3c(C)ccc(C(=O)NC(C(=O)NC(C(=O)NCCO)C(C)C)C(C)O)c3nc-2c(C(=O)NC(C(=O)NC(C(=O)NCCO)C(C)C)C(C)O)c(N)c1=O (stereo not drawn)
inactive: dose: 0.05 mg/kg/injection, schedule: Q01DX009 (ip), vehicle: water 99 % of control | dose: 0.1 mg/kg/injection, schedule: Q01DX009 (ip), vehicle: water 100 % of control | dose: 0.2 mg/kg/injection, schedule: Q01DX009 (ip), vehicle: water 100 % of control | dose: 0.4 mg/kg/injection, schedule: Q01DX009 (ip), vehicle: water 97 % of control | dose: 0.8 mg/kg/injection, schedule: Q01DX009 (ip), vehicle: water 98 % of control | dose: 1.6 mg/kg/injection, schedule: Q01DX009 (ip), vehicle: water 88 % of control and 94 % of control | dose: 3.2 mg/kg/injection, schedule: Q01DX009 (ip), vehicle: water 92 % of control | dose: 6.4 mg/kg/injection, schedule: Q01DX009 (ip), vehicle: water 110 % of control | dose: 12.8 mg/kg/injection, schedule: Q01DX009 (ip), vehicle: water 97 % of control

CC(C)C(CC[C@@H](C)C1CC[C@@]2(C)C3=C(CC[C@]12C)[C@@]1(C)CC[C@H](O)C(C)(C)[C@@H]1CC3)S[As](C)C (stereo partly drawn)
inactive: [1] 92 % of control | [2] 95 % of control | [3] 97 % of control

C=CCn1c(=O)n(C)c(=O)c2[nH]c(Cl)nc21
inactive: dose: 16.0 mg/kg/injection, schedule: Q01DX009 (ip), vehicle: Klucel (hydroxypropylcellulose) (HPC) 108 % of control | dose: 32.0 mg/kg/injection, schedule: Q01DX009 (ip), vehicle: Klucel (hydroxypropylcellulose) (HPC) 103 % of control | [14] 110 % of control | dose: 64.0 mg/kg/injection, schedule: Q01DX009 (ip), vehicle: Klucel (hydroxypropylcellulose) (HPC) 104 % of control | [15] 112 % of control

OCC1OC(Sc2ncc[nH]2)C(O)C(O)C1O (stereo not drawn)
inactive: dose: 60.0 mg/kg/injection, schedule: Q01DX005 (ip), vehicle: saline 94 % of control and 97 % of control | dose: 120.0 mg/kg/injection, schedule: Q01DX005 (ip), vehicle: saline 95 % of control and 96 % of control | dose: 240.0 mg/kg/injection, schedule: Q01DX005 (ip), vehicle: saline 97 % of control and 90 % of control

CC(=O)Nc1ccc(S(=O)(=O)Oc2noc3ccc(S(N)(=O)=O)cc23)cc1
inactive: dose: 100.0 mg/kg/injection, schedule: Q04DX002 (ip), vehicle: Klucel (hydroxypropylcellulose) (HPC) 102 % of control | dose: 200.0 mg/kg/injection, schedule: Q04DX002 (ip), vehicle: Klucel (hydroxypropylcellulose) (HPC) 107 % of control | dose: 400.0 mg/kg/injection, schedule: Q04DX002 (ip), vehicle: Klucel (hydroxypropylcellulose) (HPC) 109 % of control

COc1ccc(CN2COc3c(ccc4ccccc34)C2)cc1
inactive: dose: 100.0 mg/kg/injection, schedule: Q04DX003 (ip), vehicle: Klucel (hydroxypropylcellulose) (HPC) 97 % of control | dose: 200.0 mg/kg/injection, schedule: Q04DX003 (ip), vehicle: Klucel (hydroxypropylcellulose) (HPC) 96 % of control | dose: 400.0 mg/kg/injection, schedule: Q04DX003 (ip), vehicle: Klucel (hydroxypropylcellulose) (HPC) 100 % of control

C=C1C[C@@H](O)[C@H](O)[C@@]2(C)C[C@@H]3OC(=O)C(=C)[C@@H]3C[C@H]12
inactive: dose: 3.12 mg/kg/injection, schedule: Q01DX009 (ip), vehicle: saline 103 % of control | dose: 6.25 mg/kg/injection, schedule: Q01DX009 (ip), vehicle: saline 104 % of control and 119 % of control | dose: 12.5 mg/kg/injection, schedule: Q01DX009 (ip), vehicle: saline 104 % of control and 113 % of control | dose: 25.0 mg/kg/injection, schedule: Q01DX009 (ip), vehicle: saline 122 % of control

O=C(NC(ON1CCCCC1)C(=O)O)c1ccccc1 (stereo not drawn)
inactive: [14] 104 % of control | [15] 102 % of control | [16] 98 % of control

CC(Nc1ncnc2c1CCc1ccccc1-2)C(=O)O (stereo not drawn)
inactive: [4] 100 % of control | [5] 94 % of control

Cc1cc(NCCCCCCCCNc2cc(C)nc3cc(N(C)C)ccc23)c2ccc(N(C)C)cc2n1
active: dose: 100.0 mg/kg/injection, schedule: Q04DX002 (ip), vehicle: distilled water + Tween-80 + alcohol 172 % of control
inactive: dose: 12.5 mg/kg/injection, schedule: Q04DX002 (ip), vehicle: distilled water + Tween-80 + alcohol 108 % of control | dose: 25.0 mg/kg/injection, schedule: Q04DX002 (ip), vehicle: distilled water + Tween-80 + alcohol 118 % of control

CCCCCCNC(=S)Nc1ccc2cc(C)ccc2n1
inactive: [14] 91 % of control | [15] 91 % of control | [16] 94 % of control

COc1ccc(C2=C(c3ccccc3)C(=O)C3(c4ccccc4)CC23c2ccc(OC)cc2)cc1 (stereo not drawn)
inactive: [1] 97 % of control | [2] 89 % of control | [3] 92 % of control

Cc1cc(Nc2ccc(N(C)C)cc2)c2cc(N(C)C)ccc2n1
inactive: [11] 96 % of control | [13] 107 % of control

COc1cc2cc(/C(C)=N/OCC3CO3)c(Cl)nc2cc1OC (stereo not drawn)
inactive: [6] 96 % of control | [7] 93 % of control | [12] 92 % of control

COc1ccc(C(c2cc3c(cc2O)OCO3)N2CCOCC2)cc1 (stereo not drawn)
inactive: [8] 118 % of control | [9] 109 % of control and 119 % of control | [10] 120 % of control

Cc1ccc(C(=O)CC2(O)C(=O)Nc3c(Cl)cc(Cl)cc32)cc1 (stereo not drawn)
inactive: [8] 103 % of control | [9] 108 % of control | [10] 100 % of control

CCOC(=O)C1(c2cc(NS(=O)(=O)c3ccccc3)ccc2O)CCCCC1=O (stereo not drawn)
inactive: dose: 12.5 mg/kg/injection, schedule: Q01DX001 (ip), vehicle: saline with Tween-80 104 % of control | dose: 25.0 mg/kg/injection, schedule: Q01DX001 (ip), vehicle: saline with Tween-80 104 % of control | dose: 50.0 mg/kg/injection, schedule: Q01DX001 (ip), vehicle: saline with Tween-80 100 % of control

CC1(C)COC(c2cccc3c2C2C=CC3O2)=N1 (stereo not drawn)
inactive: [8] 92 % of control | [9] 97 % of control | [10] 108 % of control
